*: point of attachment. MethylRed = CN(C)c1ccc(/N=N/c2ccccc2C(=O)*)cc1; FAM = 5(6)-carboxyfluorescein; peptoid = not defined here; Ahx = NCCCCCC(=O)O
Test system: HEK293T cells
Assay: Flow cytometry detection of caspase-3 activity in live cells
Format: cell-based
Settings: 27 at 10 μM, 5 h
Procedure: Fig 4 Flow cytometry analysis of healthy and apoptotic HEK293T cells treated with substrate 27. The cells were incubated 5 h with fluorogenic substrate 27 (10 μM), detached, and analysed by flow cytometry (λEx/Em 488/530 nm, x-axis = fluorescence intensity). (A) Healthy, non-apoptotic cells. (B) Apoptotic cells (induced by 1 μM staurosporine). TEXT PRINTED IN THE PICTURE: (A) no label printed: FITC - 92.7%; FITC + 7.28% | (B) no label printed: FITC - 1.57%; FITC + 98.4% […]
Cell culture was performed in a Heracell 150 incubator (Heraeus) and in a Herasafe KS 18 class II negative-flow cabinet (Heraeus). HEK293T and MCF-7 cells (cultured in high glucose (4.5 mg/mL) DMEM supplemented with 4 mM glutamine, 100 units/mL penicillin, 10 mg/mL streptomycin and 25 mg/mL amphotericin B, and 10% FBS) were seeded onto a 48-well plate at a density of 10^4 cells per well. After 12 hours, the media was removed and substrates 1–14 added at 10 μM in fresh media. Selected wells were also treated with staurosporine (1 μM). After 5 hours, the cells were washed twice with PBS, detached with trypsin/EDTA, harvested with 2% FBS in PBS supplemented with Trypan Blue (0.04%) for analysis on a BD FACSAria® flow cytometer. Fluorescence was evaluated as mean fluorescence intensity (MFI) and estimated <100 u.a. for untreated control cells (consistent values independently of staurosporine addition). Apoptotic cells treated with substrate 1 were used as a positive control to obtain the maximum of fluorescence signal. 50,000 events per sample were plotted in two-dimensional dot plots based on forward and side scattering. The cellular size and complexity (SSC-H vs. FSC-H) were used to gate two populations (alive/apoptotic cells) (debri excluded). The data were analysed using the software Flowjo® 7.5.
Quantification of caspase-3 in apoptotic cells by flow cytometry
Localisation of apoptotic cells by flow cytometry. Flow cytometry analysis of morphology (SSC-A) and size (FSC-A) of HEK293T cells without (left image) and with (right image) treatment with 1 µM staurosporine for 4 h.
Calculation of active caspase-3 concentration inside cells
Substrate 27 was used to quantify caspase-3 per cell.1
1. Calculate FAM-Ahx-Leu-Pro-Asp released per cell:
Fluorescein-labelled microspheres (0.5% SC, ≈ 2 mmol/g),2 were used to generate the standard curve for fluorescence intensity versus amount of the fluorophore (nmol) by flow cytometry (see below).
Kossler, S.; Nofziger, C.; Jakab, M.; Dossena, S.; Paulmichl, M. Toxicology, 2012, 292, 123-135.
2 a) A. uncit-Broceta, E.M.V. Johansson, R.M. Yusop, R.M. Sanchez-Martin and M. Bradley, Nat.
Protocol, 2012, 7, 1207-1218. b) J.M. Cardenas-Maestre and R.M. Sanchez-Martin, Org. Biomol. Chem., […]
(1 picture or pasted object on this page, not shown here)
FAM standard curve to determine conversion factor (7x109 MFI/nmol) representing FI (Fluorescence Intensity) versus FAM quantity (nmol).
To determine the concentration of FAM-Ahx-Leu-Pro-Asp released per cell (nmol/cell) = [FI/cell – FI0/cell]/7x109 FI/nmol
Assuming 20 µm cell diameter and 2/3 of that for the nucleus, the cytoplasmic volume of HEK293T cell is 3 pl (VC).1,3
FAM-Ahx-Leu-Pro-Asp released per cell (M) = FAM-Ahx-Leu-Pro-Asp released per […]
2. Calculate the rate of product formation V0 with 5 h staurosporine treatment:
V0 = d[P]/dt = FAM-Ahx-Leu-Pro-Asp released per cell (mM)/18000 sec
3. Quantify the concentration of the enzyme per cell at high substrate concentrations (enzyme saturation) […]
kcat = 0.04 s-1 (sensor 27 DLPDK)
[E] = enzyme concentration per cell (nM)
[Caspase-3] = 15.65 ± 0.46 nM (1.3 ng active caspase 3 per 106 apoptotic staurosporine- […]
3 Y. Liu, X. Yan and T. Zhou, PLOS one, 2013, 8, 8.
4. Quantify the number of molecules per cell of caspase-3
NoE (number of enzyme molecules per cell) = [E]xVCxNA […]

[1] = apoptosis induced by 1 μM staurosporine (Fig 4B)

Q: What does the source list for “substrate 27: FAM-Ahx-Asp-Leu-Pro-Asp-Lys(MR)-Ahx, conjugated to the cell penetrating peptoid at the C-terminus ({FAM-Ahx}-DLPDK(MethylRed)-{Ahx-peptoid}; reading uncertain; also: printed as FAM-Ahx-Asp-Leu-Pro-Asp-Lys(MR)-Ahx)”?
A: FITC + cells, apoptotic [1]: 98.4%; FITC - cells, apoptotic [1]: 1.57%; increase in fluorescence without staurosporine (no staurosporine, flow cytometry): no increase observed; FITC + cells, healthy (non-apoptotic cells (Fig 4A)): 7.28%; FITC - cells, healthy (non-apoptotic cells (Fig 4A)): 92.7%; increase in the fluorescence intensity of the cells after apoptotic stimulation (staurosporine 1 μM, flow cytometry λEx/Em 488/530 nm): 2.5 fold

Source: publication PMC4864350, “Fluorogenic Substrates for In Situ Monitoring of Caspase-3 Activity in Live Cells” (PLoS ONE, 2016)
